# Assay results: patent US8466203B2, “Method of stabilizing human eye tissue by reaction with nitrite and related agents such as nitro compounds” (priority 2006, dated 2013)
# Legend:
# porcine sclera = experiment: Thermal shrinkage temperature analysis of porcine scleral strips; conditions: for shift in Ts (in words): neutral pH, up to 100 mM
# Text: (§1) Thermal shrinkage temperature or denaturation temperature (Ts) is a technique that has been used for decades in studying collagen cross-linking. As collagen fibers are progressively heated, a threshold temperature is reached at which point disruption of hydrogen bonding in the collagen molecule triple helix occurs, resulting in unwinding of the triple helices. The denaturation of tertiary protein structure results in a rapid shrinkage of the tissue of up to 80%. This phenomenon can be expressed in various ways including temperature of onset of tissue shrinkage, temperature at maximal tissue shrinkage, and temperature at 50% of maximal tissue shrinkage, for example. In addition, differential scanning calorimetry (DSC) is related to thermal shrinkage temperature analysis and is widely used to evaluate biomaterial cross-linking. Thermal shrinkage temperature is essentially a simplified version of DSC and can be used effectively to screen the cross-linking efficacy of compounds. For the purposes of this study, the onset of shrinkage is considered the Ts and the temperature at which 50% of maximal shrinkage has occurred is T50. Graphs depicting the relationship between degree of shrinkage and temperature indicate differences in degree of cross-linking between groups. Thus, stabilization of collagen fiber structures through non-enzymatic cross-linking increases Ts and T50.
# (§2) This system can perform multiple Ts assays in succession, allowing rapid screening of a number of potential cross-linking agents and conditions. […] Inlet and outlet fittings allow for constant circulation of heated water which is modulated by a digitally controlled water bath equipped with a water pump. The entire box is placed on a digital photo scanner connected to a Windows based computer. Beginning at 50° C. the temperature is raised at a rate of 1° C./min and serial scans are taken at every degree increase in temperature up to 80° C. […] As the tissue shrinks, the images are captured by the scanner. The image files are later analyzed for 2-dimensional area using NIH Image J software and % shrinkage calculations are made using Microsoft Excel for graphing purposes. This method obviates the need for removal of tissue pieces from the water bath with manual micrometer measurements as described by the UVR group (Spoerl, E., et al., 2004).
# Using this simple, reproducible assay enables the screening of a number of compounds for cross-linking efficacy. This is first performed using porcine eyes because of their low cost. Follow up studies can be performed using human eyes. Porcine eyes are obtained within 6 hrs of sacrifice (Hatfield Meat Packing, Inc., Hatfield Pa.). Eyes showing clear corneas and intact epithelia are chosen for study. […] Each strip is then cross-linked using a nitro agent. […] Opthalmol. 1999; 117:166-169) for 24-96 hrs. Following incubation, the samples are evaluated for degree of cross-linking using the Ts assay as described above.
# From the data, Ts curves are generated for each compound and condition studied. Each data point is the average of 3 independent samples.
# porcine cornea [1] = experiment: Gross stiffness of porcine corneal strips handled with a forceps; conditions: 100 mM, pH 7.4, 37° C., 48 hrs
# Method: Fresh porcine corneal strips and corneoscleral complexes obtained within 6 hrs of sacrifice and incubated at 37° C. in buffered solutions (pH 7.4) containing 20% Dextran (T500) and either 100 mM NaNO2 or 100 mM of one each of the specified β-nitro alcohols
# (§3) These images were taken from tissues cross-linked with nitrite and the β-nitro alcohols 2-nitroethanol, 2-nitro-1-propanol, and […], for 48 hrs. […] Fresh porcine corneal strips and corneoscleral complexes were obtained within 6 hrs of sacrifice and incubated at 37° C. in buffered solutions (pH 7.4) containing 20% Dextran (T500) and either 100 mM NaNO2 or 100 mM of one each of the β-nitro alcohols. After 48 hrs, the following images were obtained. […] FIGS. 13 (B and D)
# porcine cornea [2] = experiment: Thermal shrinkage temperature analysis of porcine corneal strips
# Text: as §1, §2
# Using this simple, reproducible assay enables the screening of a number of compounds for cross-linking efficacy. This is first performed using porcine eyes because of their low cost. Follow up studies can be performed using human eyes. Porcine eyes are obtained within 6 hrs of sacrifice (Hatfield Meat Packing, Inc., Hatfield Pa.). Eyes showing clear corneas and intact epithelia are chosen for study. […] Each strip is then cross-linked using a nitro agent. The incubation solution is 20% Dextran (T500) [to prevent tissue swelling] in 0.2 M NaH2PO4/Na2HPO4 (pH 7.4) with various concentrations of nitro agent (i.e. 1, 10, and 100 mM). […] The samples are then placed in 2 mL microcentrifuge tubes with 1 mL of incubation solution and reacted in a 34° C. water bath (simulating corneal temperature—Girardin, F., et al., “Relationship between corneal temperature and finger temperature,” Arch. Opthalmol. 1999; 117:166-169) for 24-96 hrs. Following incubation, the samples are evaluated for degree of cross-linking using the Ts assay as described above.
# porcine cornea [3] = experiment: Yellowing of cross-linked porcine cornea
# Method: as §3
# As such, the effects on corneal light transmission induced by cross-linking with β-nitro alcohols was evaluated using a method adopted from Dillon et al 2004.
# [4] = system: primary bovine corneal endothelial cells; conditions: bovine, 48 h
# human fibroblasts = conditions: Sung 1998; cited from earlier work
# [5] = 1 mM reagent, pH 7.4, 37° C., 96 hrs
# [6] = 10 mM reagent, pH 7.4, 37° C., 96 hrs
# [7] = 100 mM reagent, pH 7.4, 37° C., 96 hrs
# [8] = 100 mM, 24 hrs reaction, pH 7.4
SMILES,T50 (temperature at 50% of maximal shrinkage) (porcine sclera; [5]),T50 Δ (change in 50% shrinkage temperature compared to control) (porcine sclera; [5]),T50 (temperature at 50% of maximal shrinkage) (porcine sclera; [6]),T50 Δ (change in 50% shrinkage temperature compared to control) (porcine sclera; [6]),Ti (temperature at 1% absolute shrinkage) (porcine sclera; [6]),T50 (temperature at 50% of maximal shrinkage) (porcine sclera; [7]),T50 Δ (change in 50% shrinkage temperature compared to control) (porcine sclera; [7]),Ti (temperature at 1% absolute shrinkage) (porcine sclera; [7]),shift in Ts (in words) (porcine sclera),other results
"O=CCCCC=O [Glutaraldehyde, reference compound]",68.9 °C,3.6 °C,–,–,–,–,–,–,–,potency as a cross-linking agent relative to 2-nitroethanol (porcine sclera; at moderate levels of T50 shift (~4° C.)): approximately 10 ×
CC(CO)[N+](=O)[O-] (stereo not drawn) [2-nitro-1-propanol],66.0 °C,0.7 °C,67.5 °C,2.2 °C,64.4 °C,72.7 °C,7.4 °C,69.5 °C,–,stiffness change when handled with a forceps (porcine cornea [1]): intermediate effect; shifts in Ts (in words) (porcine cornea [2]): produce shifts in Ts; Ti (temperature at 1% absolute shrinkage) (porcine sclera; [5]): 63.0 °C; yellowing (tinting) (porcine cornea [3]): without producing yellowing; highest tolerated level [4]: 0.75 mM
"C[S+](C)[O-] [DMSO, reference compound]",–,–,–,–,–,–,–,–,–,"T50 (porcine sclera; 1% reagent, pH 7.4, 96 hrs): 65.0 °C; T50 Δ (porcine sclera; 1% reagent, pH 7.4, 96 hrs): −0.3 °C"
CCC(C(C)O)[N+](=O)[O-] (stereo not drawn) [3-nitro-2-pentanol],66.2 °C,0.9 °C,67.7 °C,2.4 °C,65.3 °C,70.7 °C,5.4 °C,68.3 °C,–,stiffness change when handled with a forceps (porcine cornea [1]): dramatic stiffness change; Ti (temperature at 1% absolute shrinkage) (porcine sclera; [5]): 62.5 °C; highest tolerated level [4]: 2 mM
"C=O [Formaldehyde, reference compound]",–,–,–,–,–,–,–,–,–,T50 (temperature at 50% of maximal shrinkage) (porcine sclera; pH 7.4): 67.7 °C; T50 Δ (change in 50% shrinkage temperature compared to control) (porcine sclera; pH 7.4): 2.4 °C
"NCCN(CCN)/[N+]([O-])=N/O [DETA/NONO, diethylenetriaamine NONOate, reference compound]",–,–,–,–,–,65.5 °C,0.2 °C,–,Neither compound was able to shift Ts parameters,–
"O=[N+]([O-])c1ccccc1O [2-nitrophenol, reference compound]",65.2 °C,−0.1 °C,65.6 °C,0.3 °C,62.3 °C,66.0 °C,0.7 °C,62.9 °C,very little shift in Ts,Ti (temperature at 1% absolute shrinkage) (porcine sclera; [5]): 62.2 °C
"NCCO [2-aminoethanol, reference compound]",–,–,–,–,–,67.9 °C,2.6 °C,64.3 °C,only a marginal shift in Ts,–
CCCC(CO)[N+](=O)[O-] (stereo not drawn) [2-nitro-1-pentanol],–,–,–,–,–,–,–,–,–,shifts in Ts (in words) (porcine cornea [2]): produce shifts in Ts; yellowing (tinting) (porcine cornea [3]): without producing yellowing
"CCO [Ethanol, reference compound]",–,–,–,–,–,65.2 °C,−0.1 °C,–,–,–
"CC[N+](=O)[O-] [2-nitroethane, reference compound]",–,–,65.4 °C,0.1 °C,62.5 °C,65.3 °C,0 °C,62.5 °C,did not shift the Ts to any extent,–
COC(=O)C1=CO[C@@H](O)[C@@H]2C(CO)=CC[C@H]12 [genipin],–,–,–,–,–,–,–,–,–,tolerable level relative to epoxy (human fibroblasts): more than 20 ×; tolerable level relative to glutaraldehyde (human fibroblasts): more than 100 ×
"NCCCN(CCCN)/[N+]([O-])=N/O [DPTA/NONO, dipropylenetriamine NONOate, reference compound]",–,–,–,–,–,–,–,–,Neither compound was able to shift Ts parameters,"T50 (porcine sclera; 10 mM, 24 hrs reaction, pH 7.4): 66.4 °C; T50 Δ (porcine sclera; 10 mM, 24 hrs reaction, pH 7.4): 1.1 °C; T50 (porcine sclera; [8]): 66.2 °C; T50 Δ (porcine sclera; [8]): 0.9 °C"
